Patent US20120041030A1, “PYRIDINE THIO DERIVATIVE, AND PHARMACEUTICAL COMPOSITION WHICH CONTAINS SAME AND HAS ANTI-HELICOBACTER PYLORI ACTION” (priority 2009, published 2012)
Values after ≈ are worked out from the molar mass of the structure shown.

Experiments:
Type in all cases: cell-based
[1] = system: Staphylococcus aureus (MRSA, ATCC 33591); experiment: Antibacterial test (MIC), comparison bacteria; conditions: Gram positive; for MIC: read-out: minimum inhibitory concentration (MIC)
Experimental: (§1) ATCC43504 which was a standard bacterial strain was used as Helicobacter pylori (H. pylori) to perform the test in vitro in a Columbia agar medium. The bacteria were cultured at 37° C. and a pH of 7.0 for three days. The minimum inhibitory concentration (MIC, μg/ml) was found on the fourth day. Each sample was dissolved in 1% DMSO to use. […] As bacteria for comparison, Gram negative bacteria, for example, E. coli (ATCC 10536 ATCC 25922), Klebsiella pneumonia (ATCC 10031), Proteus vulgaris (ATCC 13315), Pseudomonas aeruginosa (ATCC 9027) and Salmonella typhimurium (ATCC 13311) were used and Gram positive bacteria, for example, Staphylococcus aureus, MRSA (ATCC 33591), Staphylococcus epidermidis (ATCC 12228), Streptococcus pneumonia (ATCC 6301), Mycobacterium ranae (ATCC 110) and Enterococcus faecalis (VRE, ATCC 51575) were used.
(§2) The values in each table show minimum inhibitory concentrations (MIC, μg/ml).

[2] = system: Pseudomonas aeruginosa (ATCC 9027); experiment: Antibacterial test (MIC), comparison bacteria; conditions: for minimum inhibitory concentration (MIC): Gram negative; for MIC: ATCC9027, Gram negative, read-out: minimum inhibitory concentration (MIC)
Experimental: as §1, §2

[3] = system: Staphylococcus epidermidis (ATCC 12228); experiment: Antibacterial test (MIC), comparison bacteria; conditions: for minimum inhibitory concentration (MIC): Gram positive; for MIC: ATCC12228, Gram positive, read-out: minimum inhibitory concentration (MIC)
Experimental: as §1, §2

[4] = system: Proteus vulgaris (ATCC 13315); experiment: Antibacterial test (MIC), comparison bacteria; conditions: for minimum inhibitory concentration (MIC): Gram negative; for MIC: ATCC13315, Gram negative, read-out: minimum inhibitory concentration (MIC)
Experimental: as §1, §2

[5] = system: Klebsiella pneumonia (ATCC 10031); experiment: Antibacterial test (MIC), comparison bacteria; conditions: for minimum inhibitory concentration (MIC): Gram negative; for MIC: Klebsiella pneumoniae, ATCC10031, Gram negative, read-out: minimum inhibitory concentration (MIC)
Experimental: as §1, §2

[6] = system: Escherichia coli (ATCC 10536); experiment: Antibacterial test (MIC), comparison bacteria; conditions: for minimum inhibitory concentration (MIC): Gram negative; for MIC: ATCC10536, Gram negative, read-out: minimum inhibitory concentration (MIC)
Experimental: as §1, §2

[7] = system: Enterococcus faecalis (VRE, ATCC 51575); experiment: Antibacterial test (MIC), comparison bacteria; conditions: Gram positive; for MIC: read-out: minimum inhibitory concentration (MIC)
Experimental: as §1, §2

[8] = system: Mycobacterium ranae (ATCC 110); experiment: Antibacterial test (MIC), comparison bacteria; conditions: for minimum inhibitory concentration (MIC): Gram positive; for MIC: ATCC110, Gram positive, read-out: minimum inhibitory concentration (MIC)
Experimental: as §1, §2

[9] = system: Streptococcus pneumonia (ATCC 6301); experiment: Antibacterial test (MIC), comparison bacteria; conditions: for minimum inhibitory concentration (MIC): Gram positive; for MIC: Streptococcus pneumoniae, ATCC6301, Gram positive, read-out: minimum inhibitory concentration (MIC)
Experimental: as §1, §2

[10] = system: Escherichia coli (ATCC 25922); experiment: Antibacterial test (MIC), comparison bacteria; conditions: for minimum inhibitory concentration (MIC): Gram negative; for MIC: ATCC25922, Gram negative, read-out: minimum inhibitory concentration (MIC)
Experimental: as §1, §2

[11] = system: Salmonella typhimurium (ATCC 13311); experiment: Antibacterial test (MIC), comparison bacteria; conditions: Gram negative; for MIC: Salmonella enterica, read-out: minimum inhibitory concentration (MIC)
Experimental: as §1, §2

[12] = system: Helicobacter pylori (ATCC 43504); experiment: Antibacterial test (MIC) against Helicobacter pylori; conditions: for minimum inhibitory concentration (MIC): Helicobacter pylori ATCC 43504; for minimum inhibitory concentration (MIC) / MIC: Columbia agar medium, 37° C., pH 7.0, cultured three days, MIC found on the fourth day; for MIC: Helicobacter pylori, ATCC43504, 72 h, pH 7, Helicobacter pylori ATCC 43504, read-out: minimum inhibitory concentration (MIC)
Experimental: as §1, §2

[13] = system: Gram negative or Gram positive bacteria; experiment: Antibacterial test (MIC), comparison bacteria summarised in text; conditions: text summary over the comparison bacteria
Experimental: ATCC43504 which was a standard bacterial strain was used as Helicobacter pylori (H. pylori) to perform the test in vitro in a Columbia agar medium. The bacteria were cultured at 37° C. and a pH of 7.0 for three days. The minimum inhibitory concentration (MIC, μg/ml) was found on the fourth day. Each sample was dissolved in 1% DMSO to use. As control drugs for the antibacterial agent, ampicillin (AMPC), clarithromycin (CAM), and gentamycin (GEM) were used. As bacteria for comparison, Gram negative bacteria, for example, E. coli (ATCC 10536 ATCC 25922), Klebsiella pneumonia (ATCC 10031), Proteus vulgaris (ATCC 13315), Pseudomonas aeruginosa (ATCC 9027) and Salmonella typhimurium (ATCC 13311) were used and Gram positive bacteria, for example, Staphylococcus aureus, MRSA (ATCC 33591), Staphylococcus epidermidis (ATCC 12228), Streptococcus pneumonia (ATCC 6301), Mycobacterium ranae (ATCC 110) and Enterococcus faecalis (VRE, ATCC 51575) were used.
as §2

For Gentamycin [GEM, reference compound], the “minimum inhibitory concentration (MIC)” value [1] was 1.0 µg/mL, the “minimum inhibitory concentration (MIC)” value [2] was 1.0 µg/mL and the “minimum inhibitory concentration (MIC)” value [3] was 0.1 µg/mL. For the same compound, the “minimum inhibitory concentration (MIC)” value [4] was 0.3 µg/mL, the “minimum inhibitory concentration (MIC)” value [5] was 1.0 µg/mL and the “minimum inhibitory concentration (MIC)” value [6] was 0.3 µg/mL. The “minimum inhibitory concentration (MIC)” value [7] was 100 µg/mL, the “minimum inhibitory concentration (MIC)” value [8] was 0.3 µg/mL and the “minimum inhibitory concentration (MIC)” value [9] was 100 µg/mL. For the same compound, the “minimum inhibitory concentration (MIC)” value [10] was 1.0 µg/mL, the “minimum inhibitory concentration (MIC)” value [11] was 3.0 µg/mL and the “minimum inhibitory concentration (MIC)” value [12] was 0.3 µg/mL. For the same compound, the “MIC against Helicobacter pylori” value ([12]; control drug) was 0.3 µg/mL and the “MIC against Gram negative or Gram positive bacteria” value [13] was 0.1 to 1.0 µg/mL.

With COCCOCCOc1ccnc(SCc2nc3ccccc3[nH]2)c1C.Cl [Example 12, 2-[[[4-[2-(2-methoxyethoxy)-ethoxy]-3-methyl-2-pyridyl]thio]-methyl]-1H-benzimidazole hydrochloride] the MIC [1] was over 100 µg/mL, the MIC [2] was over 100 µg/mL and the MIC [3] was over 100 µg/mL. It also gave an MIC [4] of over 100 µg/mL, an MIC [5] of over 100 µg/mL and an MIC [6] of over 100 µg/mL. The MIC [7] was over 100 µg/mL, the MIC [8] was over 100 µg/mL and the MIC [9] was over 100 µg/mL. For the same compound, the MIC [10] was over 100 µg/mL, the MIC [11] was over 100 µg/mL and the MIC [12] was 0.3 µg/mL.

With CCCCCSc1ccnc(SCc2nc3ccccc3[nH]2)c1C [Example 7, 2-[[(4-thiopentyl-3-methyl-2-pyridyl)thio]-methyl]-1H-benzimidazole] the “minimum inhibitory concentration (MIC)” value [1] was 100< μg/ml, the “minimum inhibitory concentration (MIC)” value [2] was 100< μg/ml and the “minimum inhibitory concentration (MIC)” value [3] was 100< μg/ml. The “minimum inhibitory concentration (MIC)” value [4] was 100< μg/ml, the “minimum inhibitory concentration (MIC)” value [5] was 100< μg/ml and the “minimum inhibitory concentration (MIC)” value [6] was 100< μg/ml. The “minimum inhibitory concentration (MIC)” value [7] was 100< μg/ml, the “minimum inhibitory concentration (MIC)” value [8] was 100< μg/ml and the “minimum inhibitory concentration (MIC)” value [9] was 100< μg/ml. For the same compound, the “minimum inhibitory concentration (MIC)” value [10] was 100< μg/ml, the “minimum inhibitory concentration (MIC)” value [11] was 100< μg/ml and the “minimum inhibitory concentration (MIC)” value [12] was 0.3 µg/mL (≈ 0.839 µM).

Work on CCCCCOc1ccnc(SCc2nc3ccccc3[nH]2)c1C.Cl [Example 10, 2-[[(4-pentyloxy-3-methyl-2-pyridyl)thio]-methyl]-1H-benzimidazole hydrochloride] yielded an MIC [1] of over 100 µg/mL, an MIC [2] of over 100 µg/mL and an MIC [3] of over 100 µg/mL. For the same compound, the MIC [4] was over 100 µg/mL, the MIC [5] was over 100 µg/mL and the MIC [6] was over 100 µg/mL. The MIC [7] was over 100 µg/mL, the MIC [8] was over 100 µg/mL and the MIC [9] was over 100 µg/mL. The MIC [10] was over 100 µg/mL, the MIC [11] was over 100 µg/mL and the MIC [12] was 0.1 µg/mL.

With CCOCCCOc1ccnc(SCc2nc3ccccc3[nH]2)c1C [Example 11] the MIC [1] was over 100 µg/mL, the MIC [2] was over 100 µg/mL and the MIC [3] was over 100 µg/mL. It also gave an MIC [4] of over 100 µg/mL, an MIC [5] of over 100 µg/mL and an MIC [6] of over 100 µg/mL. It also gave an MIC [7] of over 100 µg/mL, an MIC [8] of over 100 µg/mL and an MIC [9] of over 100 µg/mL. For the same compound, the MIC [10] was over 100 µg/mL, the MIC [11] was over 100 µg/mL and the MIC [12] was 0.1 µg/mL (≈ 0.28 µM).

CCCSc1ccnc(SCc2nc3ccccc3[nH]2)c1C.Cl [Example 6, 2-[[(4-thiopropyl-3-methyl-2-pyridyl)thio]-methyl]-1H-benzimidazole hydrochloride] was tested, and the “minimum inhibitory concentration (MIC)” value [1] was 100< μg/ml, the “minimum inhibitory concentration (MIC)” value [2] was 100< μg/ml and the “minimum inhibitory concentration (MIC)” value [3] was 100< μg/ml. For the same compound, the “minimum inhibitory concentration (MIC)” value [4] was 100< μg/ml, the “minimum inhibitory concentration (MIC)” value [5] was 100< μg/ml and the “minimum inhibitory concentration (MIC)” value [6] was 100< μg/ml. For the same compound, the “minimum inhibitory concentration (MIC)” value [7] was 100< μg/ml, the “minimum inhibitory concentration (MIC)” value [8] was 100< μg/ml and the “minimum inhibitory concentration (MIC)” value [9] was 100< μg/ml. The “minimum inhibitory concentration (MIC)” value [10] was 100< μg/ml, the “minimum inhibitory concentration (MIC)” value [11] was 100< μg/ml and the “minimum inhibitory concentration (MIC)” value [12] was 0.3 µg/mL.
